Laboratory results taken from PubChem BioAssay (NCI).
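1) Cells in 96-well plates. 2) Compound, 48 h, 5 concentrations. 3) Linear interpolation between surrounding doses. 4) Unreached endpoint = highest concentration. The concentration for 50% growth inhibition is given as GI50. TGI: concentration producing complete growth inhibition.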

Key:
Experiment in all cases: NCI tumour cell line growth inhibition, 48 h
NCI-H23 lung = tested on: NCI-H23 lung
NCI-H460 lung = tested on: NCI-H460 lung
NCI-H522 lung = tested on: NCI-H522 lung
NCI/ADR-RES ovarian = tested on: NCI/ADR-RES ovarian
OVCAR-3 ovarian = tested on: OVCAR-3 ovarian
OVCAR-4 ovarian = tested on: OVCAR-4 ovarian
OVCAR-5 ovarian = tested on: OVCAR-5 ovarian
OVCAR-8 ovarian = tested on: OVCAR-8 ovarian
PC-3 prostate = tested on: PC-3 prostate
RPMI-8226 leukemia = tested on: RPMI-8226 leukemia
RXF 393 renal = tested on: RXF 393 renal
SF-268 CNS = tested on: SF-268 CNS
SF-295 CNS = tested on: SF-295 CNS
SF-539 CNS = tested on: SF-539 CNS
SK-MEL-2 melanoma = tested on: SK-MEL-2 melanoma
SK-MEL-28 melanoma = tested on: SK-MEL-28 melanoma
SK-MEL-5 melanoma = tested on: SK-MEL-5 melanoma
SK-OV-3 ovarian = tested on: SK-OV-3 ovarian
SN12C renal = tested on: SN12C renal
SNB-19 CNS = tested on: SNB-19 CNS
SNB-75 CNS = tested on: SNB-75 CNS
SR leukemia = tested on: SR leukemia
SW-620 colon = tested on: SW-620 colon
T-47D breast = tested on: T-47D breast
TK-10 renal = tested on: TK-10 renal
U251 CNS = tested on: U251 CNS
UACC-257 melanoma = tested on: UACC-257 melanoma
UACC-62 melanoma = tested on: UACC-62 melanoma
UO-31 renal = tested on: UO-31 renal

COC(=O)c1c2c(c(C)[n+]([O-])c1C)C(=O)C=C(NCc1ccc(F)c(Cl)c1)C2=O
GI50 (NCI-H23 lung): 0.412 µM | TGI (NCI-H23 lung): 2.11 µM | GI50 (NCI-H460 lung): 0.264 µM | TGI (NCI-H460 lung): 1.4 µM | GI50 (NCI-H522 lung): 0.266 µM | TGI (NCI-H522 lung): 1.7 µM | GI50 (NCI/ADR-RES ovarian): 0.265 µM | TGI (NCI/ADR-RES ovarian): 1.63 µM | GI50 (OVCAR-3 ovarian): 0.201 µM | TGI (OVCAR-3 ovarian): 0.628 µM | GI50 (OVCAR-4 ovarian): 0.151 µM | TGI (OVCAR-4 ovarian): 0.603 µM | GI50 (OVCAR-5 ovarian): 1.16 µM | TGI (OVCAR-5 ovarian): 2.69 µM | GI50 (OVCAR-8 ovarian): 0.155 µM | TGI (OVCAR-8 ovarian): 1.14 µM | GI50 (PC-3 prostate): 0.245 µM | TGI (PC-3 prostate): 4.02 µM | GI50 (RPMI-8226 leukemia): 0.839 µM | TGI (RPMI-8226 leukemia): 3.93 µM | GI50 (RXF 393 renal): 1.13 µM | TGI (RXF 393 renal): 2.46 µM | GI50 (SF-268 CNS): 1.01 µM | TGI (SF-268 CNS): 2.81 µM | GI50 (SF-295 CNS): 0.231 µM | TGI (SF-295 CNS): 1.48 µM | GI50 (SF-539 CNS): 0.604 µM | TGI (SF-539 CNS): 1.71 µM | GI50 (SK-MEL-2 melanoma): 0.677 µM | TGI (SK-MEL-2 melanoma): 2.5 µM | GI50 (SK-MEL-28 melanoma): 0.411 µM | TGI (SK-MEL-28 melanoma): 2.15 µM | GI50 (SK-MEL-5 melanoma): 0.164 µM | TGI (SK-MEL-5 melanoma): 0.311 µM | GI50 (SK-OV-3 ovarian): 1.51 µM | TGI (SK-OV-3 ovarian): 3.38 µM | GI50 (SN12C renal): 0.31 µM | TGI (SN12C renal): 1.28 µM | GI50 (SNB-19 CNS): 0.801 µM | TGI (SNB-19 CNS): 2.07 µM | GI50 (SNB-75 CNS): 1.69 µM | TGI (SNB-75 CNS): 3.09 µM | GI50 (SR leukemia): 0.381 µM | TGI (SR leukemia): 6.73 µM | GI50 (SW-620 colon): 0.112 µM | TGI (SW-620 colon): 1.32 µM | GI50 (T-47D breast): 0.0638 µM | TGI (T-47D breast): 1.35 µM | GI50 (TK-10 renal): 2.22 µM | TGI (TK-10 renal): 5.49 µM | GI50 (U251 CNS): 0.291 µM | TGI (U251 CNS): 1.44 µM | GI50 (UACC-257 melanoma): 0.171 µM | TGI (UACC-257 melanoma): 0.64 µM | GI50 (UACC-62 melanoma): 0.0325 µM | TGI (UACC-62 melanoma): 0.662 µM | GI50 (UO-31 renal): 1.05 µM | TGI (UO-31 renal): 2.37 µM
